# Data: US11332459B2 (TEIJIN PHARMA LIMITED, priority 2017, dated 2022)
# Counter-ions that a name gives are not always drawn.
# Target: T1, human TRPC6 (Homo sapiens, UniProt Q9Y210)
# T1 construct: expressed in transfected cells
# T1 sequence (Q9Y210 1-931): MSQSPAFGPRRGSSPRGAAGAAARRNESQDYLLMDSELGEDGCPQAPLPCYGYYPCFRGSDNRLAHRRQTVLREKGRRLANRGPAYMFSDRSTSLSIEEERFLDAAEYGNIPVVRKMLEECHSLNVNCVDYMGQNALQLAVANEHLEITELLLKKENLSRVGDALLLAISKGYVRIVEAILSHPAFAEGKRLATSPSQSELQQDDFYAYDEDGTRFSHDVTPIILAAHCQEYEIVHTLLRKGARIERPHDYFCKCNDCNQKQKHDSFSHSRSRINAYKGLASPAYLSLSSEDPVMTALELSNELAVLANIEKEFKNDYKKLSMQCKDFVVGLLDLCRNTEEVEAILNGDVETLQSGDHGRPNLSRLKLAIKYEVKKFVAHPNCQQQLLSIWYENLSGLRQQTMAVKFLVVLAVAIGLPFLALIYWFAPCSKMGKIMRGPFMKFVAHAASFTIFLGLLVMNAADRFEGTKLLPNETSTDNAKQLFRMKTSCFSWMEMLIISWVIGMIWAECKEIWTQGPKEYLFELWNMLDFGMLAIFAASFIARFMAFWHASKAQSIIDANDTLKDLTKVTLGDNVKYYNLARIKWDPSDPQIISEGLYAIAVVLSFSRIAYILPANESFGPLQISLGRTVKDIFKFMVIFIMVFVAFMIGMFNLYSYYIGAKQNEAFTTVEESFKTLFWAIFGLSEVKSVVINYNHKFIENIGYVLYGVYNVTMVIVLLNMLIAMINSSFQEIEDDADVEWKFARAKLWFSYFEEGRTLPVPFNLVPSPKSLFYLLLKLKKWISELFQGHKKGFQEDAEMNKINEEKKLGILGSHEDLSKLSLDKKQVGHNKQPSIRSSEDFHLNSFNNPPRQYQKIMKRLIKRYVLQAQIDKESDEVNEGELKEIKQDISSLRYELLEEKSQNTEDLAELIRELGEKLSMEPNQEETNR
# Experiment: TRPC6 calcium flux assay (FLIPR, OAG-stimulated calcium influx)
# Type: cell-based
# Conditions: HEK293 cells stably transfected with human TRPC6, read-out: hTRPC6 Potency
# How it was run: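 IC50 derived by plotting background-corrected peak fluorescence (180 s window, normalized to OAG-triggered signal vs buffer) against dose. Stable human TRPC6 HEK293 line was dye-loaded, exposed to compound 25 min, then challenged with 50 uM final OAG in 2 mM Ca2+ HEPES buffer pH 7.2, 0.5% DMSO.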
row,Structure (SMILES),IC50
1,"N#Cc1ccc(Cn2c(N3CC[C@@H](CN)C3)nc3ccccc32)nc1 [Example 81, (S)-6-((2-(3-(aminomethyl)pyrrolidin-1-yl)-1H-benzo[d]imidazol-1-yl)methyl)nicotinonitrile hydrochloride]",557 nM
2,"CC(C)C1CN(C(=O)Cn2c(N3CC[C@@H](F)[C@H](N)C3)nc3cc(F)c(F)cc32)C1 [Example 429, 2-(2-((3R,4R)-3-amino-4-fluoropiperidin-1-yl)-5,6-difluoro-1H-benzo[d]imidazol-1-yl)-1-(3-isopropylazetidin-1-yl)ethanone]",> 3750 nM
3,Cc1cc2nc(N3CC[C@@H](F)[C@H](N)C3)n(Cc3ccc(C#N)cn3)c2cc1C [Example 44],0.952 nM
4,"N[C@@H]1CN(c2nc3cc(F)c(F)cc3n2CC(=O)N(c2ccccc2)C2C=CS(=O)(=O)C2)CC[C@H]1F (mixture of isomers) [Example 515, 2-(2-((3R,4R)-3-amino-4-fluoropiperidin-1-yl)-5,6-difluoro-1H-benzo[d]imidazol-1-yl)-N-(1,1-dioxido-2,3-dihydrothiophen-3-yl)-N-phenylacetamide]",186 nM
5,"N#Cc1ccc(Cn2c(N3C[C@@H]4CC[C@@H](N)[C@@H]4C3)nc3ccccc32)nc1 [Example 79, 6-((2-((3aS,4R,6aR)-4-aminohexahydrocyclopenta[c]pyrrol-2(1H)-yl)-1H-benzo[d]imidazol-1-yl)methyl)nicotinonitrile hydrochloride]",5.09 nM
6,"N#Cc1ccc2c(c1)CC[C@@H]2n1c(N2CCC[C@H](N)C2)nc2ccccc21 [Example 424, (S)-1-(2-((S)-3-aminopiperidin-1-yl)-1H-benzo[d]imidazol-1-yl)-2,3-dihydro-1H-indene-5-carbonitrile]",0.707 nM
7,"N[C@@H]1CN(c2nc3cc(F)c(F)cc3n2Cc2ccc(F)cn2)CCC1(F)F [Example 307, (R)-1-(5,6-difluoro-1-((5-fluoropyridin-2-yl)methyl)-1H-benzo[d]imidazol-2-yl)-4,4-difluoropiperidin-3-amine]",376 nM
8,"COc1ccc2nc(N3CCC[C@@H](N)C3)n(Cc3ccc(C#N)cc3)c2c1 [Example 185, (R)-4-((2-(3-aminopiperidin-1-yl)-6-methoxy-1H-benzo[d]imidazol-1-yl)methyl)benzonitrile]",3.58 nM
9,"Cc1nnc(Cn2c(N3CC[C@@H](F)[C@H](N)C3)nc3cc(F)cc(F)c32)s1 [Example 599, (3R,4R)-1-(5,7-difluoro-1-((5-methyl-1,3,4-thiadiazol-2-yl)methyl)-1H-benzo[d]imidazal-2-yl)-4-fluoropiperidin-3-amine]",> 3750 nM
10,"CC(C#N)CN(C)C(=O)Cn1c(N2CC[C@@H](F)[C@H](N)C2)nc2cc(F)c(F)cc21 (mixture of isomers) [Example 621, 2-(2-((3R,4R)-3-amino-4-fluoropiperidin-1-yl)-5,6-difluoro-1H-benzo[d]imidazol-1-yl)-N-(2-cyanopropyl)-N-methylacetamide]",75.3 nM
11,"N#Cc1ccc2c(c1)nc(N1CC[C@@H](F)[C@H](N)C1)n2Cc1ccc(F)cn1 [Example 191, 2-((3R,4R)-3-amino-4-fluoropiperidin-1-yl)-1-((5-fluoropyridin-2-yl)methyl)-1H-benzo[d]imidazole-5-carbonitrile]",140 nM
12,"C[C@H](c1ccc(Cl)cn1)n1c(N2CC[C@@H](F)[C@H](N)C2)nc2ccc(Cl)cc21 [Example 221, (3R,4R)-1-(6-chloro-1-((R)-1-(5-chloropyridin-2-yl)ethyl)-1H-benzo[d]imidazol-2-yl)-4-fluoropiperidin-3-amine hydrochloride]",54.9 nM
13,"C[C@H](C#N)N(C)C(=O)Cn1c(N2CC[C@@H](F)[C@H](N)C2)nc2cc(F)c(F)cc21 [Example 603, 2-(2-((3R,4R)-3-amino-4-fluoropiperidin-1-yl)-5,6-difluoro-1H-benzo[d]imidazol-1-yl)-N-((R)-1-cyanoethyl)-N-methylacetamide]",6.73 nM
14,"CN(C(=O)Cn1c(N2CC[C@@H](F)[C@H](N)C2)nc2ccc(F)cc21)[C@H]1CCOC1 [Example 664, 2-(2-((3R,4R)-3-amino-4-fluoropiperidin-1-yl)-6-fluoro-1H-benzo[d]imidazol-1-yl)-N-methyl-N-((S)-tetrahydrofuran-3-yl)acetamide]",555 nM
15,"CN[C@H]1CCCN(c2nc3ccccc3n2Cc2ccc(F)cn2)C1 [Example 253, (3S)-1-(1-((5-fluoro-2-pyridinyl)methyl)-1H-benzimidazol-2-yl)-N-methyl-3-piperidinamine]",406 nM
16,"N#C[C@H]1CCCN1C(=O)Cn1c(N2CC[C@@H](F)[C@H](N)C2)nc2cc(F)c(F)cc21 [Example 636, (R)-1-(2-(2-((3R,4R)-3-amino-4-fluoropiperidin-1-yl)-5,6-difluoro-1H-benzo[d]imidazol-1-yl)acetyl)pyrrolidine-2-carbonitrile]",326 nM
17,"CCN(CC1CCN(C(C)=O)C1)C(=O)Cn1c(N2CC[C@@H](F)[C@H](N)C2)nc2cc(F)c(F)cc21 (mixture of isomers) [Example 650, N-((1-acetylpyrrolidin-3-yl)methyl)-2-(2-((3R,4R)-3-amino-4-fluoropiperidin-1-yl)-5,6-difluoro-1H-benzo[d]imidazol-1-yl)-N-ethylacetamide]",> 1750 nM
18,"N#Cc1ccc(Cn2c(N3CC[C@@H](F)[C@H](N)C3)nc3cc(Cl)c(C(F)(F)F)cc32)nc1 [Example 127, 6-((2-((3R,4R)-3-amino-4-fluoro-1-piperidinyl)-5-chloro-6-(trifluoromethyl)-1H-benzimidazol-1-yl)methyl)-3-pyridinecarbonitrile]",0.492 nM
19,"CC1(C#N)CCN(C(=O)Cn2c(N3CC[C@@H](F)[C@H](N)C3)nc3cc(F)c(F)cc32)CC1 [Example 629, 1-(2-(2-((3R,4R)-3-amino-4-fluoropiperidin-1-yl)-5,6-difluoro-1H-benzo[d]imidazol-1-yl)acetyl)-4-methylpiperidine-4-carbonitrile]",158 nM
20,"N#Cc1cc(F)cc2nc(N3CCC(F)(F)[C@H](N)C3)n(Cc3ncc(Cl)cn3)c12 [Example 150, (R)-2-(3-amino-4,4-difluoropiperidin-1-yl)-1-((5-chloropyrimidin-2-yl)methyl)-5-fluoro-1H-benzo[d]imidazole-7-carbonitrile]",9.02 nM
21,"N#Cc1ccc(Cn2c(N3CC[C@@H](F)[C@H](N)C3)nc3ccc(Cl)cc32)nc1 [Example 6, 6-((2-((3R,4R)-3-amino-4-fluoropiperidin-1-yl)-6-chloro-1H-benzo[d]imidazol-1-yl)methyl)nicotinonitrile]",0.4 nM
22,"COc1cc(F)cc2nc(N3CC[C@@H](F)[C@H](N)C3)n(CC(=O)N3CCOCC3)c12 [Example 546, 2-(2-((3R,4R)-3-amino-4-fluoropiperidin-1-yl)-5-fluoro-7-methoxy-1H-benzo[d]imidazol-1-yl)-1-morpholinoethan-1-one]",> 3750 nM
23,"CN(CCF)C(=O)Cn1c(N2CC[C@@H](F)[C@H](N)C2)nc2cc(F)c(F)cc21 [Example 606, 2-(2-((3R,4R)-3-amino-4-fluoropiperidin-1-yl)-5,6-difluoro-1H-benzo[d]imidazol-1-yl)-N-(2-fluoroethyl)-N-methylacetamide]",8.06 nM
24,C[C@H](C(=O)N(C)C)n1c(N2CC[C@@H](F)[C@H](N)C2)nc2cc(F)c(F)cc21 [Example 279],7.16 nM
25,"N#Cc1ccc(Cn2c(N3CCC(F)(F)[C@H](N)C3)nc3cc(F)cc(F)c32)nc1 [Example 67, (R)-6-((2-(3-amino-4,4-difluoropiperidin-1-yl)-5,7-difluoro-1H-benzo[d]imidazol-1-yl)methyl)nicotinonitrile]",272 nM
26,"N[C@@H]1CN(c2nc3ccc(F)cc3n2CC(=O)NC2CCC2)CC[C@H]1F [Example 668, 2-(2-((3R,4R)-3-amino-4-fluoropiperidin-1-yl)-6-fluoro-1H-benzo[d]imidazol-1-yl)-N-cyclobutylacetamide]",778 nM
27,"CN(CCC(F)(F)F)C(=O)Cn1c(N2CC[C@@H](F)[C@H](N)C2)nc2cc(F)c(F)cc21 [Example 622, -(2-((3R,4R)-3-amino-4-fluoropiperidin-1-yl)-5,6-difluoro-1H-benzo[d]imidazol-1-yl)-N-methyl-N-(3,3,3-trifluoropropyl)acetamide]",78.9 nM
28,"N[C@@H]1CN(c2nc3cc(C(F)(F)F)ccc3n2CC(=O)N2CCOCC2)CC[C@H]1F [Example 473, 2-(2-((3R,4R)-3-amino-4-fluoropiperidin-1-yl)-5-(trifluoromethyl)-1H-benzo[d]imidazol-1-yl)-1-morpholinoethan-1-one]",398 nM
